Laboratory results reported in patent US20250257034A1, “INDOLE DERIVATIVES AS SEROTONERGIC AGENTS USEFUL FOR THE TREATMENT OF DISORDERS RELATED THERETO” (priority 2023, published 2025).
Several values for one entry are separate records, joined by “and”; a condition that tells them apart may be missing. Equal entries are not always repeated. Where two headings read alike, the source gives them in different places.

Columns and labels:
[1] = Pharmacokinetic studies in rat (i.v.); assay type: in vivo; conditions: for concentration at 0.25 h / concentration at 1 h / AUC(0-t) / half-life: male, Sprague-Dawley, rat, plasma
How it was run: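 Male Sprague-Dawley rats (~225-350 g) received compounds intravenously via tail vein in 5% Tween-80 in saline. Saphenous blood was sampled at 0.25, 1 and 4 h and analysed by LC-MS/MS. t1/2 and AUC0-tlast came from non-compartmental analysis using the linear up/log down trapezoidal rule.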

human 5-HT2A receptor = human 5-HT2A receptor (Homo sapiens, UniProt P28223); assay: Human 5-HT2A radioligand binding assay ([3H]-ketanserin); parameters: expressed in transfected cells; host or cells: HTR2A&Gα15-HEK293 (tetracycline induction)
How it was run: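 Competition binding on 5-HT2A cell membranes (20 μg/well) with [3H]-ketanserin (5 nM stock, 5× final), 8 compound doses by 5-fold dilution, pH 7.4 buffer, 90 min at 27 °C. Bound radioactivity via GF/B filtration and scintillation counting; % inhibition normalized to high/low controls, IC50 from Hill fit.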

Chain of human 5-HT2A receptor (P28223 whole entry): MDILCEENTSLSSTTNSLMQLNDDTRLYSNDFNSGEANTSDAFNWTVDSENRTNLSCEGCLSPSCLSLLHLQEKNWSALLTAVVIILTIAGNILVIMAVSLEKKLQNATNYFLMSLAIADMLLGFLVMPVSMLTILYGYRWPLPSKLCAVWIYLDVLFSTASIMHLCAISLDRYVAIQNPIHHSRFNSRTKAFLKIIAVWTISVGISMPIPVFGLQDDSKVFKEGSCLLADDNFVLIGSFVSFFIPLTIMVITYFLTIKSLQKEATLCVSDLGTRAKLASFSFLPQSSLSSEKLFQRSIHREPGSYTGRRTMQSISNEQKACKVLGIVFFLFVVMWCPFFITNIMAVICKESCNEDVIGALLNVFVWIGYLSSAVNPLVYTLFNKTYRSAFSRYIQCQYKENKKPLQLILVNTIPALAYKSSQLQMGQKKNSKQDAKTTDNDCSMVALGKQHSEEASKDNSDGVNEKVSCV

SMILES: CN(C)CCc1c[nH]c2ccc(OCCOC(F)F)cc12 [Compound I-128, 2-(5-(2-(Difluoromethoxy)ethoxy)-1H-indol-3-yl)-N,N-dimethylethan-1-amine]
- concentration at 0.25 h ([1]; intravenous, rat i.v., 0.25 h, first individual rat (R01/R04), dose 1.37 mg/kg (I-71, I-128), 1.33 mg/kg ((S) I-67), read-out: Plasma concentration): 146 ng/mL
- concentration at 0.25 h ([1]; intravenous, rat i.v., 0.25 h, mean of 3 rats, dose 1.37 mg/kg (I-71, I-128), 1.33 mg/kg ((S) I-67), read-out: Plasma concentration, Mean ± SD): 138 ± 9.07 ng/mL
- concentration at 0.25 h ([1]; intravenous, rat i.v., 0.25 h, second individual rat (R02/R05), dose 1.37 mg/kg (I-71, I-128), 1.33 mg/kg ((S) I-67), read-out: Plasma concentration): 128 ng/mL
- concentration at 0.25 h ([1]; intravenous, rat i.v., 0.25 h, third individual rat (R03/R06), dose 1.37 mg/kg (I-71, I-128), 1.33 mg/kg ((S) I-67), read-out: Plasma concentration): 139 ng/mL
- concentration at 1 h ([1]; intravenous, rat i.v., 1 h, first individual rat (R01/R04), dose 1.37 mg/kg (I-71, I-128), 1.33 mg/kg ((S) I-67), read-out: Plasma concentration): 19 ng/mL
- concentration at 1 h ([1]; intravenous, rat i.v., 1 h, mean of 3 rats, dose 1.37 mg/kg (I-71, I-128), 1.33 mg/kg ((S) I-67), read-out: Plasma concentration, Mean ± SD): 15.2 ± 3.32 ng/mL
- concentration at 1 h ([1]; intravenous, rat i.v., 1 h, second individual rat (R02/R05), dose 1.37 mg/kg (I-71, I-128), 1.33 mg/kg ((S) I-67), read-out: Plasma concentration): 13.1 ng/mL
- concentration at 1 h ([1]; intravenous, rat i.v., 1 h, third individual rat (R03/R06), dose 1.37 mg/kg (I-71, I-128), 1.33 mg/kg ((S) I-67), read-out: Plasma concentration): 13.4 ng/mL
- AUC(0-t) ([1]; iv, rat plasma, i.v., first individual rat (R01/R04), dose 1.37 mg/kg (I-71, I-128), 1.33 mg/kg ((S) I-67), read-out: AUC0-tlast): 99 ng·h/mL
- half-life ([1]; iv, rat plasma, i.v., first individual rat (R01/R04), estimated from 2 points only, dose 1.37 mg/kg (I-71, I-128), 1.33 mg/kg ((S) I-67), read-out: Apparent t1/2 (converted)): 15.3 min
- AUC(0-t) ([1]; iv, rat plasma, i.v., mean of 3 rats, dose 1.37 mg/kg (I-71, I-128), 1.33 mg/kg ((S) I-67), read-out: AUC0-tlast, Mean ± SD): 92.5 ± 6.63 ng·h/mL
- half-life ([1]; iv, rat plasma, i.v., mean of 3 rats, estimated from 2 points only, dose 1.37 mg/kg (I-71, I-128), 1.33 mg/kg ((S) I-67), read-out: Apparent t1/2, Mean ± SD (converted)): 14.1 ± 1.04 min
- AUC(0-t) ([1]; iv, rat plasma, i.v., second individual rat (R02/R05), dose 1.37 mg/kg (I-71, I-128), 1.33 mg/kg ((S) I-67), read-out: AUC0-tlast): 85.7 ng·h/mL
- half-life ([1]; iv, rat plasma, i.v., second individual rat (R02/R05), estimated from 2 points only, dose 1.37 mg/kg (I-71, I-128), 1.33 mg/kg ((S) I-67), read-out: Apparent t1/2 (converted)): 13.7 min
- AUC(0-t) ([1]; iv, rat plasma, i.v., third individual rat (R03/R06), dose 1.37 mg/kg (I-71, I-128), 1.33 mg/kg ((S) I-67), read-out: AUC0-tlast): 92.9 ng·h/mL
- half-life ([1]; iv, rat plasma, i.v., third individual rat (R03/R06), estimated from 2 points only, dose 1.37 mg/kg (I-71, I-128), 1.33 mg/kg ((S) I-67), read-out: Apparent t1/2 (converted)): 13.3 min
- Plasma concentration ([1]; rat i.v., 4 h, first individual rat (R01/R04), dose 1.37 mg/kg (I-71, I-128), 1.33 mg/kg ((S) I-67)): No Peak
- Plasma concentration ([1]; rat i.v., 4 h, second individual rat (R02/R05), dose 1.37 mg/kg (I-71, I-128), 1.33 mg/kg ((S) I-67)): No Peak
- Plasma concentration ([1]; rat i.v., 4 h, third individual rat (R03/R06), dose 1.37 mg/kg (I-71, I-128), 1.33 mg/kg ((S) I-67)): No Peak
- IC50 (human 5-HT2A receptor): 7.83 µM

SMILES: [2H]C([2H])([2H])N(CCc1c[nH]c2ccc(SC)cc12)C([2H])([2H])[2H] [Compound I-1, N,N-Bis(methyl-d3)-2-(5-(methylthio)-1H-indol-3-yl)ethan-1-amine]
- Plasma concentration ([1]; I-1 1.10 mg/kg i.v., rat plasma, 0.25 h, individual rats R04-R06, 1.1 mg/kg): 15.7 ng/mL and 16.9 ng/mL
- Plasma concentration ([1]; I-1 1.10 mg/kg i.v., rat plasma, 1 h, individual rats R04-R06, 1.1 mg/kg): 0.835 ng/mL and 0.354 ng/mL and 0.298 ng/mL
- Plasma concentration (ng/mL) ([1]; I-1 1.10 mg/kg i.v., rat plasma, 4 h, individual rats R04-R06): BLQ (BLQ denotes below the lower limit of quantitation (0.5 ng/mL))
- AUC0-tlast ([1]; I-1 1.10 mg/kg i.v., rat plasma, individual rats R04-R06, 1.1 mg/kg): 10.9 ng·h/mL and 12.0 ng·h/mL
- Apparent t1/2 ([1]; I-1 1.10 mg/kg i.v., rat plasma, individual rats R04-R06, estimated from 2 points only, 1.1 mg/kg): 8.22 min and 7.74 min
- concentration at 0.25 h ([1]; iv, 1.1 mg/kg, I-1 1.10 mg/kg i.v., rat plasma, 0.25 h, Mean ± SD, read-out: Plasma concentration): 16.4 ± 0.624 ng/mL
- concentration at 0.25 h ([1]; iv, 1.1 mg/kg, I-1 1.10 mg/kg i.v., rat plasma, 0.25 h, individual rats R04-R06, read-out: Plasma concentration): 16.6 ng/mL
- concentration at 1 h ([1]; iv, 1.1 mg/kg, I-1 1.10 mg/kg i.v., rat plasma, 1 h, Mean ± SD, read-out: Plasma concentration): 0.496 ± 0.295 ng/mL
- half-life ([1]; iv, 1.1 mg/kg, I-1 1.10 mg/kg i.v., rat plasma, Mean ± SD, estimated from 2 points only, read-out: Apparent t1/2 (converted)): 8.82 ± 1.44 min
- AUC(0-t) ([1]; iv, 1.1 mg/kg, I-1 1.10 mg/kg i.v., rat plasma, Mean ± SD, read-out: AUC0-tlast): 11.3 ± 0.587 ng·h/mL
- half-life ([1]; iv, 1.1 mg/kg, I-1 1.10 mg/kg i.v., rat plasma, individual rats R04-R06, estimated from 2 points only, read-out: Apparent t1/2 (converted)): 10.4 min
- AUC(0-t) ([1]; iv, 1.1 mg/kg, I-1 1.10 mg/kg i.v., rat plasma, individual rats R04-R06, read-out: AUC0-tlast): 11.1 ng·h/mL
- IC50 (human 5-HT2A receptor): 0.392 µM
